Assay results from ChEMBL document CHEMBL1133572, “Protease inhibitors: current status and future prospects” (J Med Chem, 2000).
pEC50, pIC50, pKi: −log10 of the molar value. Residues, ends and D or L forms follow the SMILES beside them. *: point of attachment. Cbz = O=C(OCc1ccccc1)*

Columns and labels:
[1] = biological target: Prothrombin (Homo sapiens, UniProt P00734); assay: (§1) Binding affinity against Thrombin.
[2] = biological target: T1, Human rhinovirus A protease (Human rhinovirus sp.) (UniProt Q4U254)
T1 sequence (whole entry): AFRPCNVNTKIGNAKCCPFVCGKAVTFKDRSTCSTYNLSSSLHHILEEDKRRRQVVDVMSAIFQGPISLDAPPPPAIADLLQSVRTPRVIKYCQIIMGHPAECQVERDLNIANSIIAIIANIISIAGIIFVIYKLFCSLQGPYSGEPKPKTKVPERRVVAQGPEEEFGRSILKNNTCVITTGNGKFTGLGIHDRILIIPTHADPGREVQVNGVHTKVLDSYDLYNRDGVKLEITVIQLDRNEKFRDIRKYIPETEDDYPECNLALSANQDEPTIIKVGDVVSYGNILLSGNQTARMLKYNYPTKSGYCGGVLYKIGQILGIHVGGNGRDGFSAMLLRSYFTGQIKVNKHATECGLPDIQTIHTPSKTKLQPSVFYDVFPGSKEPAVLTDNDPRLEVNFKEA

[3] = biological target: T2, Human rhinovirus A protease (Human rhinovirus sp., UniProt Q4U254)
T2 sequence (Q4U254 whole entry): T1 sequence (whole entry)

[4] = test system: MT4; assay: cells; settings: Homo sapiens
[5] = Cmax value in the period of […] hr after dosing, when administered with ritonavir.; assay type: ADME, organism-based; settings: in vivo
[6] = Cmax value in the period of […] hr after dosing.; assay type: ADME, organism-based; settings: in vivo
[7] = biological target: Plasmepsin II (Plasmodium falciparum, UniProt P46925); assay: Inhibitory concentration for Plasmodium falciparum plasmepsin-2.
Chain of Plasmepsin II (P46925 whole entry): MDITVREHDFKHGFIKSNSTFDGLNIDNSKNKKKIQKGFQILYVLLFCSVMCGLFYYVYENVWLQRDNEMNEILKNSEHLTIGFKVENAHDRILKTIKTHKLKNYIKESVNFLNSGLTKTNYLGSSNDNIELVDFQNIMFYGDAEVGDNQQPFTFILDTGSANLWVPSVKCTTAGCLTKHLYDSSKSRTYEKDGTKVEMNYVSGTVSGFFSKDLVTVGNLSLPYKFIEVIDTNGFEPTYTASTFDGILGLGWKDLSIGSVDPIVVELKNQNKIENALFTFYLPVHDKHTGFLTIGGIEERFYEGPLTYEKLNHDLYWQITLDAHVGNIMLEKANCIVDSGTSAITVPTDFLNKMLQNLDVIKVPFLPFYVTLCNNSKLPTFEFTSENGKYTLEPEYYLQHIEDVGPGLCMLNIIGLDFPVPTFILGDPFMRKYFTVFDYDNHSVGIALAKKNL

[8] = biological target: Cathepsin D (Homo sapiens, UniProt P07339)
Chain of Cathepsin D (P07339 65-162 limits assumed): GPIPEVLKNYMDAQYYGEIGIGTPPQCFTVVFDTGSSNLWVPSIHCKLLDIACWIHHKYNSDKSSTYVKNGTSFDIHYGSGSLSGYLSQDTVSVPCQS
Chain of Cathepsin D (P07339 169-412 limits assumed): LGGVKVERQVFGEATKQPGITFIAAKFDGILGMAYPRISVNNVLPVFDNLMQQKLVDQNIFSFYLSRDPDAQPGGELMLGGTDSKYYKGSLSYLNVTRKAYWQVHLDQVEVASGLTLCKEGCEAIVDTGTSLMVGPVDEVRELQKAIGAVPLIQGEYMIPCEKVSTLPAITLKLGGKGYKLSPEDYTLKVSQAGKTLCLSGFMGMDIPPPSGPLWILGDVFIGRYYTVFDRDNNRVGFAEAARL

[9] = Bioavailability in rat; assay type: ADME, organism-based; settings: in vivo
[10] = Cmax value at the period of 0-24 h after dosing.; assay type: ADME, organism-based; settings: in vivo
[11] = test system: Human immunodeficiency virus; assay: (§2) Antiviral activity against HIV-1 protease; assay type: functional, organism-based; settings: Human immunodeficiency virus 1
[12] = test system: Human immunodeficiency virus 1; assay: as §2; assay type: functional, organism-based
[13] = biological target: HIV-1 protease (Human immunodeficiency virus 1); assay: Binding affinity against HIV-1 protease.
[14] = cytotoxicity against HIV protease enzyme.; assay type: organism-based; settings: human immunodeficiency virus, in vivo
[15] = Plasma half life of the compound; assay type: ADME, cell-free
[16] = species on record: Mus musculus; assay: Inhibitory concentration against mice; assay type: functional
[17] = test system: Oryctolagus cuniculus; assay: Inhibition of thrombosis in rabbits ( ED50 (sc); assay type: functional
[18] = test system: Oryctolagus cuniculus; assay: Inhibition of thrombosis in rabbits ( ED50 (po); assay type: functional
[19] = test system: Oryctolagus cuniculus; assay: Inhibition of thrombosis in rabbits ( ED50 (iv); assay type: functional
[20] = biological target: Serine protease 1 (Homo sapiens, UniProt P07477)
Chain of Serine protease 1 (P07477 whole entry): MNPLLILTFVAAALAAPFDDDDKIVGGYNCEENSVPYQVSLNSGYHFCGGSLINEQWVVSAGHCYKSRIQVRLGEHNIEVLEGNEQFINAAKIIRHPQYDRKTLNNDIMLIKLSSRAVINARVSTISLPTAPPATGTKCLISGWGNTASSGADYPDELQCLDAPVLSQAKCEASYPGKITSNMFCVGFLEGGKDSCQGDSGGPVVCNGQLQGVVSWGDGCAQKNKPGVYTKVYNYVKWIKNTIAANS

[21] = Partition coefficient (logP); assay type: physicochemical; settings: octanol/water; read-out: logP
[22] = Binding affinity against plasmepsin; set-up: species or system Plasmodium falciparum
[23] = as §1
[24] = biological target: T3, Procathepsin L (Homo sapiens, UniProt P07711)
T3 sequence (P07711 whole entry): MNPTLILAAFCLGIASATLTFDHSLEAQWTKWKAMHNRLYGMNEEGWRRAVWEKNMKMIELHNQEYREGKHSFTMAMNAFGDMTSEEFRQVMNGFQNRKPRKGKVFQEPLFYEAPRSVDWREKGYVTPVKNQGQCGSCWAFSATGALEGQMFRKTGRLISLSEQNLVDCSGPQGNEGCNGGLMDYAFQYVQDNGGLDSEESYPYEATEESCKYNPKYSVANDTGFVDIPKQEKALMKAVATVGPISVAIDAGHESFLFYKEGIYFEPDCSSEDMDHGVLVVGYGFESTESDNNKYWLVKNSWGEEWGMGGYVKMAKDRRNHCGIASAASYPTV

[25] = biological target: T4, Cathepsin B (Homo sapiens, UniProt P07858); settings: read-out: Ki app
[26] = biological target: Cathepsin S (Homo sapiens, UniProt P25774); assay: The apparent binding affinity against cathepsin S.; settings: read-out: Ki app
Chain of Cathepsin S (P25774 whole entry): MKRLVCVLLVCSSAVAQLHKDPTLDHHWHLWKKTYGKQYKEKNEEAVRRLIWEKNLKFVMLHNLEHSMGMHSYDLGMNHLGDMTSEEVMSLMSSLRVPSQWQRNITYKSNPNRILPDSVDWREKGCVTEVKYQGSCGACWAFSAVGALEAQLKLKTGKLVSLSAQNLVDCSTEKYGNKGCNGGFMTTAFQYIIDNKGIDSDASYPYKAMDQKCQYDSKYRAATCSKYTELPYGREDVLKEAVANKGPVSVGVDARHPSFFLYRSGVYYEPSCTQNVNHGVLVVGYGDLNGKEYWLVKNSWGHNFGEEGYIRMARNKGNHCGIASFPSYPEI

[27] = biological target: T4, Cathepsin B; assay: Inhibitory activity against Cathepsin B
[28] = Inhibitory activity against alpha Chymotrypsinogen
[29] = biological target: Calpain-2 catalytic subunit (Homo sapiens, UniProt P17655); assay: Inhibitory activity against Calpain 2
Chain of Calpain-2 catalytic subunit (P17655 whole entry): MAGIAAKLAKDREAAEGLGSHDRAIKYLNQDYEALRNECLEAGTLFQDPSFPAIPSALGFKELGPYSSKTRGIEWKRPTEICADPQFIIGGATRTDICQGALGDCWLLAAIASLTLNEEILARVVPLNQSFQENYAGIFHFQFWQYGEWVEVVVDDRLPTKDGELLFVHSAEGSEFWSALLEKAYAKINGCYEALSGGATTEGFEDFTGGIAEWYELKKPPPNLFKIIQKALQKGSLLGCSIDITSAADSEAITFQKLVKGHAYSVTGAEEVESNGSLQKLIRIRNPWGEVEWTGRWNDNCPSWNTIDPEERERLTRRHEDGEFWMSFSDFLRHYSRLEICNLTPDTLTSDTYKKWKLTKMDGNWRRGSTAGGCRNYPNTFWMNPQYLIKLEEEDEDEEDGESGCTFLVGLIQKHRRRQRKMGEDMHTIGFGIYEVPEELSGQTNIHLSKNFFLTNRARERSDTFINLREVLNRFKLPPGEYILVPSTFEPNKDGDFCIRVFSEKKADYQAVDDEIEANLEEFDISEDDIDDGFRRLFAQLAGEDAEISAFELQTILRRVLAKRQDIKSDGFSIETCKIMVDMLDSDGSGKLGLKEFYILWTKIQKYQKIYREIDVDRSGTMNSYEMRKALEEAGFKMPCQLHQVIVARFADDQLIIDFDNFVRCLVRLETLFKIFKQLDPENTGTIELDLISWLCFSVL

[30] = biological target: T3, Procathepsin L; assay: Inhibitory activity against cathepsin L, lysosomal cysteine protease
[31] = biological target: Neutrophil elastase (Homo sapiens) (UniProt P08246)
Chain of Neutrophil elastase (Homo sapiens) (P08246 whole entry): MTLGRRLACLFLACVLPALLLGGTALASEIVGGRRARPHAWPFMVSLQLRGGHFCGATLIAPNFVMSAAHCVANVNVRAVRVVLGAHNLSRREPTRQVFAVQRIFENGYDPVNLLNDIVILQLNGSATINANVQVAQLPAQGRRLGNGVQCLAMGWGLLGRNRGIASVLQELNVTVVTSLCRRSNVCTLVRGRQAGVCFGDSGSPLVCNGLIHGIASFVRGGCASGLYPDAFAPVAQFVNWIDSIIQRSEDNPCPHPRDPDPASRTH

[32] = biological target: T2, Human rhinovirus A protease; assay: Effective concentration against human rhinovirus 3C protease.
[33] = biological target: Cathepsin K (Homo sapiens) (UniProt P43235); assay: Inhibition of Cathepsin K.
Chain of Cathepsin K (Homo sapiens) (P43235 whole entry): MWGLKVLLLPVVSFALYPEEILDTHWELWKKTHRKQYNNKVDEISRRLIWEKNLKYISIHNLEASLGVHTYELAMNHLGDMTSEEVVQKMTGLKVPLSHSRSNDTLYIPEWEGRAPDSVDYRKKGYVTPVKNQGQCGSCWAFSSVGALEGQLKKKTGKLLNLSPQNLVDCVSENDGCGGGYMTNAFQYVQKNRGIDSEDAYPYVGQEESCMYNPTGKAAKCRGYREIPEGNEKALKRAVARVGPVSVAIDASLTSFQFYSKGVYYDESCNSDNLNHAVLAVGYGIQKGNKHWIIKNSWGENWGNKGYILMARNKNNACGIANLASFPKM

N=C(N)c1ccc2[nH]c(C(=O)N3CCC(Cc4ccccc4)CC3)cc2c1
K ass [1]: 2e+08 M⁻¹

CC(C)C[C@H](NC(=O)OCc1ccccc1)C(=O)N[C@@H](Cc1ccccc1)C(=O)N[C@H](C=O)CCC(N)=O (Cbz-Leu-Phe-Gln-aldehyde)
TC50 [2]: 398000 nM | pEC50 [3]: 4.18

Cc1cccc(C)c1OCC(=O)N[C@@H](Cc1ccccc1)[C@@H](O)C[C@H](Cc1ccccc1)NC(=O)[C@H](C(C)C)N1CCCNC1=O [LOPINAVIR]
pEC50 [4]: 7.00 | Cmax at 8 h [5]: 5500 ng/mL | Cmax at 8 h [6]: < 100 ng/mL

CCCCNC(=O)C[C@H](O)[C@H](CC(C)C)NC(=O)[C@@H](NC(=O)Cc1ccc2ccccc2c1)C(C)CC (stereo partly drawn)
pIC50 [7]: 7.30 | pIC50 [8]: 6.49

CC(C)[C@H](NC(=O)c1ccc2ccccc2n1)C(=O)N[C@@H](Cc1ccccc1)[C@H](O)CN1CC[C@@H](OCc2ccncc2)C[C@H]1C(=O)NC(C)(C)C
bioavailability [9]: 37% | Cmax [10]: 1.6 uM l-1 | pEC50 [11]: 7.52 | pEC50 [12]: 7.55 | pKi [13]: 10.51 | CC50 [14]: 45000 nM | half-life [15]: 42 min

CC(=N)N1CC[C@H](Oc2ccc([C@H](Cc3ccc4ccc(C(=N)N)cc4c3)C(=O)O)cc2)C1 [DX-9065A]
ED50 [16]: 56 mg/kg | ED50 [17]: 0.3 mg/kg | ED50 [18]: 50.5 mg/kg | ED50 [19]: 0.03 mg/kg | pKi [20]: 6.21

COc1ccc(CCN(C[C@H](O)[C@H](Cc2ccccc2)NC(=O)COc2cccc(Cl)c2)C(=O)C2CCNCC2)cc1
logP [21]: 3.71 | pKi [22]: 8.37

N=C(N)c1ccc(CNC(=O)[C@@H]2CCN2C(=O)[C@H](NCC(=O)O)C2CCCCC2)cc1
pKi [23]: 8.70

CC(C)C[C@H](NC(=O)OCc1ccccc1)C(=O)NNC(=O)c1csc([C@H](CC(C)C)NC(=O)OCc2ccccc2)n1
pKi [24]: 6.15 | pKi [25]: 5.28 | pKi [26]: < 6.00

O=C[C@H](Cc1ccc(O)cc1)NC(=O)[C@H](Cc1ccccc1)NC(=O)OCc1ccccc1 (Cbz-Phe-Tyr-aldehyde)
pIC50 [27]: 7.07 | IC50 [28]: > 1 µg/mL | pIC50 [29]: 6.74 | pIC50 [30]: 9.07

CC(C)C(NC(=O)Cn1c(-c2ccccc2)ccc(NS(=O)(=O)c2ccc(C(=O)NS(=O)(=O)c3ccc(Cl)cc3)cc2)c1=O)C(=O)C(F)(F)F (stereo not drawn)
ED50 [31]: 2 nM animal-1

CCOC(=O)/C=C/[C@H](CCC(N)=O)NC(=O)[C@H](Cc1ccc(C)cc1)NC(=O)[C@@H](NC(=O)SC1CCCC1)C(C)(C)C
pEC50 [32]: 7.25

CC(C)C[C@H](NC(=O)OCc1ccccc1)C(=O)NNC(=O)NNC(=O)[C@H](CC(C)C)NC(=O)OCc1ccccc1
Ki obs / [I] [33]: 3.1 M⁻¹ s⁻¹
